# Measurements taken from patent US10519118B2, “KDM1A inhibitors for the treatment of disease” (Imago Biosciences, Inc., priority 2015, dated 2019).
# Values joined by “and” are separate entries in the source; they are usually repeats but may differ in a detail not shown here. Equal values may be shown once.
# Key:
# Format in all cases: physicochemical
# [1] = Solid-state storage stability at elevated temperature and humidity (40° C./75% RH, 25° C./95-97% RH)
# [2] = Gravimetric vapour sorption (GVS), hygroscopicity; conditions: for hygroscopicity: in words
# Procedure: Typically 5-20 mg of sample was placed in a tared mesh stainless steel basket under ambient conditions. The sample was loaded and unloaded at 40% RH and 25° C. (typical room conditions). A moisture sorption isotherm was performed as outlined below (2 scans giving 1 complete cycle). The standard isotherm was performed at 25° C. at 10% RH intervals over a 0-90% RH range. Data analysis was carried out using Microsoft Excel using DVS Analysis Suite v6.2 (or 6.1 or 6.0).
# Sorption isotherms were obtained using a SMS DVS Intrinsic moisture sorption analyzer, controlled by DVS Intrinsic Control software v1.0.1.2 (or v 1.0.1.3). The sample temperature was maintained at 25° C. by the instrument controls. The humidity was controlled by mixing streams of dry and wet nitrogen, with a total flow rate of 200 mL/min The relative humidity was measured by a calibrated Rotronic probe (dynamic range of 1.0-100% RH), located near the sample. The weight change, (mass relaxation) of the sample as a function of % RH was constantly monitored by the microbalance (accuracy±0.005 mg).
# [3] = Solvent solubility assessment with increasing volumes of solvent; set-up: key to Solubility observation: # = clear solution; x = suspension
# Procedure: Example 1 was treated with increasing volumes of solvent (2-propanol (IPA), acetone, methylethyl ketone, ethyl acetate, tetrahydrofuran, acetonitrile, 1,4-dioxane, 90:10 IPA:water, 90:10 THF:water, tert-butylmethyl ether (MTBE), and n-heptane) until the material fully dissolved or until a maximum of 100 vol. had been used. After each addition of solvent, the system was stirred at 25° C. for 10 min before the addition of a new aliquot of solvent. Example 1 was readily soluble in 2-propanol (IPA), acetone, methylethyl ketone, ethyl acetate, tetrahydrofuran, acetonitrile, 1,4-dioxane, 90:10 IPA:water, and 90:10 THF:water, dissolving readily in 10 vol. solvent. MTBE and n-heptane were identified as anti-solvents when Example 1 was not soluble in 100 vol. solvent.
# Amorphous Example 1 (10 mg) was treated with increasing volumes of solvent at 25° C. with stirring (Table #). […] For those instances where dissolution was not observed, the samples were placed at 50° C. for 10 minutes. To all samples still in suspension, a further 10 volumes of solvents were added and the sample placed at 25° C. The temperature was then once again increased to 50° C. and maintained until the end of the experiment. Further solvent was added until the material fully dissolved or until a maximum of 70 volumes had been used. Hydrochloric acid was then added (1.1 equivalents) to all samples. A cooling ramp was set to 5° C. at 0.1° C./min and the solutions or oils were stirred at this temperature overnight, yielding oils or solutions.
# Crystalline bis tosylate Form 2 (30 mg) was treated with increasing volumes of solvent (n-Heptane, diethyl ether, ethyl acetate, isopropyl acetate, methylisobutyl ketone, 2-propanol, methylethyl ketone, acetone, dimethyl sulfoxide, water, tert-butylmethyl ether, cyclohexane, 1,4-dioxane, toluene, chloroform, 1,2-dimethoxyethane, tetrahydrofuran, N,N-dimethylformamide, acetonitrile, nitromethane, N-methylpyrrolidone, tetrahydrofuran:water 95:5, 2-propanol:water 95:5, or acetone:water 95:5 at 5, 10, 20, 30, 50, 70, or 100 vol total) until the material fully dissolved or until a maximum of 100 vol had been added. After each addition of solvent, the system was shaken gently for 10 minutes at 50° C. and then allowed to stand at ambient conditions for 5 minutes before the addition of a new aliquot of solvent. After the assessment was completed, any suspensions obtained were matured and clear solutions were cooled to 4° C. and held isothermally.
# [4] = Chemical stability of Example 1 free base lots, HPLC purity re-test
# Procedure: Various lots of Example 1 were analyzed by HPLC shortly after synthesis (analysis from 1-24 hours post-synthesis) and re-tested for purity a unit of time later.
# Purity analysis was performed on an Agilent HP1100 series system equipped with a diode array detector and using ChemStation software vB.04.03 using one of the methods detailed below: […]
smiles,measurement,setting,value
O=C(O)C(O)C(O)C(=O)O (stereo not drawn) [tartrate],Storage at 40° C. and 75% RH (form by XRPD),[1]; one week / 7 days,no change in form was observed
same,"Storage at both 40° C. and 75% RH and 25° C. and 95% RH (form, purity)",[1]; scaled-up salts,changes in crystallinity and form
same,GVS water uptake,"[2]; 25° C., full cycle 0-90% RH",~30 % w/w
same,hygroscopicity,[2],highly hygroscopic
"CN1CCN(C(=O)[C@H](CCCN[C@@H]2C[C@H]2c2ccc(F)cc2)NC(=O)c2ccc(-n3ccnn3)cc2)CC1.Cc1ccc(S(=O)(=O)O)cc1.Cc1ccc(S(=O)(=O)O)cc1 [Example 1 bis tosylate Form 2, N—((S)-5-((1R,2S)-2-(4-fluorophenyl)cyclopropylamino)-1-(4-methylpiperazin-1-yl)-1-oxopentan-2-yl)-4-(1H-1,2,3-triazol-1-yl)benzamide bis-tosylate Form 2]",solvent volume needed to dissolve,"[3]; crystalline bis tosylate Form 2, all other solvents tested incl. water, remained a suspension",> 100 vol
same,solvent volume needed to dissolve,"[3]; crystalline bis tosylate Form 2, dimethylsulfoxide and N,N-dimethylformamide, 50° C. shaking",5 vol
same,solvent volume needed to dissolve,"[3]; crystalline bis tosylate Form 2, tetrahydrofuran:water 95:5",10 vol
"CN1CCN(C(=O)C(CN[C@@H]2C[C@H]2c2ccc(F)cc2)NC(=O)c2ccc(-n3ccnn3)cc2)CC1 (stereo partly drawn) [Example 1, N-[3-[[(1R,2S)-2-(4-Fluorophenyl)cyclopropyl]amino]-1-(4-methylpiperazin-1-yl)-1-oxopropan-2-yl]-4-(1H-1,2,3-triazol-1-yl)benzamide]",Re-Test Purity,"[4]; free base Lot 1, 49 days between tests",82%
same,Re-Test Purity,"[4]; free base Lot 2, 16 days between tests",72%
same,stability at ambient conditions,[4]; free base form,degrades at ambient conditions over time
same,Initial Purity,"[4]; free base lots, HPLC 1-24 hours post-synthesis",93% and 81%
same,Solubility observation,"[3]; 1-Butanol, 10 vol 25° C.",#
same,Solubility observation,"[3]; 1-Propanol, 10 vol 25° C.",#
same,Solubility observation,"[3]; 2-Propanol, 10 vol 25° C.",#
same,solvent volume needed to dissolve,"[3]; 25° C., IPA, acetone, methylethyl ketone, ethyl acetate, THF, acetonitrile, 1,4-dioxane, 90:10 IPA:water, 90:10 THF:water",10 vol
same,solvent volume needed to dissolve,"[3]; 25° C., MTBE and n-heptane (anti-solvents)",> 100 vol
same,Solubility observation,"[3]; Acetone, 10 vol 25° C.",#
same,Solubility observation,"[3]; Acetone:Water (90:10), 10 vol 25° C.",#
same,Solubility observation,"[3]; Acetone:Water (95:5), 10 vol 25° C.",#
same,Solubility observation,"[3]; Acetonitrile, 10 vol 25° C.",#
same,Solubility observation,"[3]; Anisole, 10 vol 25° C.",#
same,Solubility observation,"[3]; Cyclohexane, 10 vol 25° C.",oil
same,Solubility observation,"[3]; Cyclohexane, 10 vol 50° C.",oil
same,Solubility observation,"[3]; Cyclohexane, 20 vol 25° C.",oil
same,Solubility observation,"[3]; Cyclohexane, 20 vol 50° C.",oil
same,Solubility observation,"[3]; Cyclohexane, 40 vol 50° C.",oil
same,Solubility observation,"[3]; Cyclohexane, 70 vol 50° C.",oil
same,Solubility observation,"[3]; Dichloromethane, 10 vol 25° C.",#
same,Solubility observation,"[3]; Diethyl ether, 10 vol 25° C.",oil
same,Solubility observation,"[3]; Diethyl ether, 10 vol 50° C.",oil
same,Solubility observation,"[3]; Diethyl ether, 20 vol 25° C.",oil
same,Solubility observation,"[3]; Diethyl ether, 20 vol 50° C.",oil
same,Solubility observation,"[3]; Diethyl ether, 40 vol 50° C.",oil
same,Solubility observation,"[3]; Diethyl ether, 70 vol 50° C.",oil
same,Solubility observation,"[3]; Dimethyl sulfoxide, 10 vol 25° C.",#
same,Solubility observation,"[3]; EtOH:Water (85:15), 10 vol 25° C.",#
same,Solubility observation,"[3]; Ethanol, 10 vol 25° C.",#
same,Solubility observation,"[3]; IPA:Water (85:15), 10 vol 25° C.",#
same,Solubility observation,"[3]; Isopropyl acetate, 10 vol 25° C.",#
same,Solubility observation,"[3]; MEK, 10 vol 25° C.",#
same,Solubility observation,"[3]; MIBK, 10 vol 25° C.",#
same,Solubility observation,"[3]; MeOH:Water (85:15), 10 vol 25° C.",#
same,Solubility observation,"[3]; Methanol, 10 vol 25° C.",#
same,Solubility observation,"[3]; Methyl acetate, 10 vol 25° C.",#
same,Solubility observation,"[3]; Propyl acetate, 10 vol 25° C.",#
same,Solubility observation,"[3]; Toluene, 10 vol 25° C.",#
same,Solubility observation,"[3]; Water, 10 vol 25° C.",x
same,Solubility observation,"[3]; Water, 10 vol 50° C.",x
same,Solubility observation,"[3]; Water, 20 vol 25° C.",x
same,Solubility observation,"[3]; Water, 20 vol 50° C.",oil
same,Solubility observation,"[3]; Water, 40 vol 50° C.",oil
same,Solubility observation,"[3]; Water, 70 vol 50° C.",oil
same,solvent volume needed to dissolve,"[3]; amorphous free base, most solvents at 25° C.",10 volumes
same,observation in solvent,"[3]; amorphous free base, water, diethyl ether, cyclohexane, up to 70 volumes, 25-50° C.",oils eventually formed
same,behaviour at high humidity,[1]; free base form,deliquesces
same,stability at elevated storage conditions,"[1]; free base, 25° C./97% RH and 40° C./75% RH",deliquesced
same,hygroscopicity,[2],hygroscopic
